This assay relates to intracellular Gag in SOCS1-siRNA HeLa cells. The assay can be described thus: Immunoblotting of intracellular Gag-GFP in SOCS1-siRNA HeLa cells treated with NH4Cl or MG132. Format: cell-based, human. As for the experimental part:
(F) HeLa cells were transfected with Cag-GFP and cotransfected with either control-siRNA or SOCS1-siRNA I. After 36 hours, the cells were treated with a mock solution, 10 mM NH4Cl or 10 μM MG132 for another 16 hours. Cell were then harvested and subjected to immunoblotting analysis with anti-GCF or anti-β-actin antibodies.
A general note: Immunoblotting shows a protein as a band on a membrane.

Each structure is given as a SMILES string. Peptide text beside a SMILES is read from it. * marks the point of attachment. Cbz = O=C(OCc1ccccc1)*

`Cl.N` [NH4Cl]: under “10 mM NH4Cl, 16 hours”, the “level of intracellular Gag” value was “significantly increased”.
`CC(C)C[C@@H](C=O)NC(=O)[C@H](CC(C)C)NC(=O)[C@H](CC(C)C)NC(=O)OCc1ccccc1` [MG132] (Cbz-Leu-Leu-Leu-aldehyde): the “level of intracellular Gag” value (10 μM MG132, 16 hours) is reported as “not”.

(Values after US7838238B2, “Method for screening anti-HIV Drugs and a diagnostic method of AIDS” (CellFree Sciences Co., Ltd., priority 2008, dated 2010).)
